Counter-ions that a name gives are not always drawn.
What follows are molecules tested against α7-subtype of nicotinic receptors (Rattus norvegicus, UniProt Q05941) (assay: biochemical).
α7-subtype of nicotinic receptors, sequence (Q05941 23-502): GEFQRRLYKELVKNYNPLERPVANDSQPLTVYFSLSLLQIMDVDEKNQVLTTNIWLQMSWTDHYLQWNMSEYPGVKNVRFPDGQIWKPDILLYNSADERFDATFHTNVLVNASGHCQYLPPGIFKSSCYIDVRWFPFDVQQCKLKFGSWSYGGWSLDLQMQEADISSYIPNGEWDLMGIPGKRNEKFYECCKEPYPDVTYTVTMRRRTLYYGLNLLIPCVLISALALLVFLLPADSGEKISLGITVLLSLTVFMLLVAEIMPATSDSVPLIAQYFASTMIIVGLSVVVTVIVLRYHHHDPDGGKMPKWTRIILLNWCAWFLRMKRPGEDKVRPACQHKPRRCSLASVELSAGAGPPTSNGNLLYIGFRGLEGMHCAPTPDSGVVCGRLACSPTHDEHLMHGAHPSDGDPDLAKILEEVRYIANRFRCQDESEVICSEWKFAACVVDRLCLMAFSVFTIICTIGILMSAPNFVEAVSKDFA
Assay type: binding
With Cn1ccc2ccc(-c3nnc(N4CCN5CCC4CC5)o3)cc21 [Compound A1, 4-[5-(1-Methyl-1H-indol-6-yl)-[1,3,4]oxadiazol-2-yl]-1,4-diaza-bicyclo[3.2.2]nonane fumaric acid salt] the IC50 was 11 nM. Molecule FCCn1ccc2ccc(-c3nnc(N4CCN5CCC4CC5)o3)cc21 [Compound A2, 4-{5-[1-(2-Fluoro-ethyl)-1H-indol-6-yl]-[1,3,4]oxadiazol-2-yl}-1,4-diaza-bicyclo[3.2.2]nonane fumaric acid salt] has an IC50 of 4.2 nM. c1cc2ccc(-c3nnc(N4CCN5CCC4CC5)o3)cc2[nH]1 [Compound A3, 2-(1,4-diazabicyclo[3.2.2]nonan-4-yl)-5-(1H-indol-6-yl)-1,3,4-oxadiazole free base] showed an IC50 of 16 nM. CC(C)n1ccc2ccc(-c3nnc(N4CCN5CCC4CC5)o3)cc21 [Compound A4, 2-(1,4-diazabicyclo[3.2.2]nonan-4-yl)-5-(1-isopropylindol-6-yl)-1,3,4-oxadiazole free base] was tested, and the IC50 was 39 nM. CCn1ccc2ccc(-c3nnc(N4CCN5CCC4CC5)o3)cc21 [Compound A5, 2-(1,4-diazabicyclo[3.2.2]nonan-4-yl)-5-(1-ethylindol-6-yl)-1,3,4-oxadiazole fumaric acid salt] was tested, and the IC50 was 3 nM.
